Results from patent US6894061B2, “Substituted dihydrophenanthridinesulfonamides” (Wyeth, priority 2002, dated 2005).
Like-named read-outs stand apart in the source and are kept apart here.

Assays:
IL-6 = IL-6 test procedure (IL-6 ELISA of media) in Ad5-wt-ERα infected HAECT-1 cells; type: cell-based, human; conditions: for Emax: read-out: Interleukin-6 Efficacy (%); for IC50: read-out: Interleukin-6 IC50
Protocol: (§1) After four hours, cells were washed with EBM-BSA and incubated overnight in the same medium. Following overnight incubation, cells were washed with EBM-BSA and infected for 2 hours with 6 mL of a 1:10 dilution of Ad5-3x(NFκB).Luc virus (Adenovirus luciferase expression vector driven by 3 repeats of the MHC NFκb site 5′ to the thymidine kinase promoter) in EBM-BSA. After two hours, cells were washed and incubated at 34° C. for 1 hour. […] Control (no ER infection) cells were processed as above without Ad5-wt-hERα virus infection.
(§2) ERα infected HAECT-1 cells or control cells were thawed, diluted 42× in warm EBM-BSA, plated into 96-well plates at 0.1 mL/well and incubated for 4 hours at 34° C. Test compounds were added to the cells as 2× stocks in EBM-BSA containing 2 ng/mL IL-1β (R&D Systems) and the 96-well plates were returned to the incubator (34° C.). After 15-20 hours, 100 μL aliquots of media were removed from the cells and assayed for IL-6 content using a BioSource human IL-6 ELISA Kit. Cells were subsequently washed with 300 μL of Dulbecco's phosphate buffered saline and lysed in 50 μL of Cell Culture Lysis Reagent (Promega). Luciferase was determined on a Wallac Victor^2 Luminometer (Gaithersburg, Md.) using 10 μL of lysate and mixing with 100 μL of Promega Luciferase Assay reagent. Creatine kinase was determined from the rate of increase in A340 following addition of 100 μL of CK assay reagent (Sigma, cat. No 47-10) to the remainder of the cell lysate.
(§3) For IC50 and EC50 calculations, mean IL-6, luciferase or CK values versus log10 of the compound concentration were fitted to a four parameter logistic equation. The IC50/EC50 value, ‘Hill slope’, upper and lower limits of the curve were iteratively estimated.

creatine kinase = test: Creatine kinase (CK) test procedure in Ad5-wt-ERα infected HAECT-1 cells; type: cell-based, human; conditions: Ad5-wt-ERα infected HAECT-1 cells; for Emax / Emax at 10 µM: read-out: Creatin Kinase Efficacy (%); for EC50: read-out: Creatin Kinase EC50
Protocol: as §1, §2, §3

ER/NF-κB = ER/NF-κB luciferase reporter in Ad5-wt-ERα infected HAECT-1 cells; type: cell-based, human; conditions: Homo sapiens, HAECT1, IL-1β; for Emax: read-out: ER/NFκB Efficacy (%)*; for IC50: read-out: ER/NFκB IC50
Protocol: as §1, §2, §3

| Structure (SMILES) | melting point | Emax at 10 µM (creatine kinase; Homo sapiens, HAECT1) | Emax (ER/NF-κB) | IC50 (ER/NF-κB) | other results |
| --- | --- | --- | --- | --- | --- |
| C[C@@H]1c2cc(F)ccc2-c2ccc(F)cc2N1S(=O)(=O)c1cccc(O)c1 (single isomer, unassigned) [Example 101] |  |  |  |  | Emax (IL-6; Homo sapiens, HAECT1, IL-1β): 74%; IC50 (IL-6; Homo sapiens, HAECT1, IL-1β): 1280 nM |
| C[C@H]1c2ccccc2-c2ccc(Cl)cc2N1S(=O)(=O)c1ccc(O)cc1O [Example 125, 4-{[(6S)-3-Chlro-6-methylphenanthridin-5(6H)-yl]sulfonyl}b nzne-1,3-diol] |  |  |  |  | Interleukin-6 Efficacy (%) (IL-6; IL-1β): 94%; IC50 (IL-6; IL-1β): 54 nM; Creatin Kinase Efficacy (%) (creatine kinase): 22% |
| C[C@H]1c2cc(F)ccc2-c2ccc(F)cc2N1S(=O)(=O)c1ccc(O)cc1 (single isomer, unassigned) [Example 100] |  |  |  |  | Emax (IL-6; Homo sapiens, HAECT1, IL-1β): 196%; IC50 (IL-6; Homo sapiens, HAECT1, IL-1β): 6.9 nM |
| C[C@@H]1c2cc(F)ccc2-c2ccc(F)cc2N1S(=O)(=O)c1ccc(O)cc1O (single isomer, unassigned) [Example 104] |  |  |  |  | Emax (IL-6; Homo sapiens, HAECT1, IL-1β): 43%; IC50 (IL-6; Homo sapiens, HAECT1, IL-1β): 171 nM; Emax (creatine kinase; Homo sapiens, HAECT1): 9% |
| C[C@H]1c2cc(F)ccc2-c2ccc(F)cc2N1S(=O)(=O)c1ccc(O)cc1O (single isomer, unassigned) [Example 103] |  |  |  |  | Emax (IL-6; Homo sapiens, HAECT1, IL-1β): 141%; IC50 (IL-6; Homo sapiens, HAECT1, IL-1β): 47 nM; EC50 (creatine kinase; Homo sapiens, HAECT1): 85 nM; Emax (creatine kinase; Homo sapiens, HAECT1): 9% |
| C[C@H]1c2ccccc2-c2ccc(Cl)cc2N1S(=O)(=O)c1cccc(O)c1 [Example 120, 3-{[(6S)-3-Chloro-6-mthylphenanthridin-5(6H)-yl]sulfonyl}ph nol] |  |  |  |  | Interleukin-6 Efficacy (%) (IL-6; IL-1β): 153%; IC50 (IL-6; IL-1β): 6 nM; Creatin Kinase Efficacy (%) (creatine kinase): 10% |
| C[C@@H]1c2ccccc2-c2ccc(F)cc2N1S(=O)(=O)c1cccc(O)c1 [Example 107, 3-{[(6R)-3-Fluoro-6-methylphenanthridin-5(6H)-yl]sulfonyl}phenol] |  |  |  |  | Emax (IL-6; Homo sapiens, HAECT1, IL-1β): 79%; IC50 (IL-6; Homo sapiens, HAECT1, IL-1β): 1330 nM; EC50 (creatine kinase; Homo sapiens, HAECT1): 110 nM; Emax (creatine kinase; Homo sapiens, HAECT1): 20% |
| C[C@H]1c2cc(F)ccc2-c2ccc(F)cc2N1S(=O)(=O)c1cccc(O)c1 (single isomer, unassigned) [Example 102] |  |  |  |  | Emax (IL-6; Homo sapiens, HAECT1, IL-1β): 156%; IC50 (IL-6; Homo sapiens, HAECT1, IL-1β): 5.4 nM |
| CC1c2cc(Cl)ccc2-c2cc(Br)ccc2N1S(=O)(=O)c1ccc(O)cc1 (stereo not drawn) [Example 62, 4-[(2-Bromo-8-chloro-6-methylphenanthridin-5(6H)-yl)sulfonyl]phenol] | 213 to 215 °C | < 35% | 90% | 120 nM |  |
| CC[C@@H](C)[C@H]1c2ccccc2-c2ccccc2N1S(=O)(=O)c1ccc(O)cc1 (relative stereo) [Example 22, 4-{[(S*)-6-[(R*)-1-methylpropyl]phenanthridin-5(6H)-yl]sulfonyl}phenol] | 115 to 118 °C | < 35% | 96% | 163 nM |  |
| CC(C)(C)[C@@H]1c2ccccc2-c2ccccc2N1S(=O)(=O)c1ccc(O)cc1 [Example 15, 4-{[(R)-6-tert-Butylphenanthridin-5(6H)-yl]sulfonyl}phenol] | 187 to 189 °C | < 35% | 99% | 16 nM |  |
| C[C@@H]1c2ccccc2-c2ccc(Cl)cc2N1S(=O)(=O)c1ccc(O)cc1 [Example 122, 4-{[(6R)-3-Chloro-6-methylphenanthridin-5(6)-yl]sulfonyl}phenol] |  |  |  |  | Interleukin-6 Efficacy (%) (IL-6; IL-1β): 37%; IC50 (IL-6; IL-1β): 464 nM; Creatin Kinase Efficacy (%) (creatine kinase): 14%; EC50 (creatine kinase): 805 nM |
| O=S(=O)(c1ccc(O)cc1)N1c2ccccc2-c2ccccc2C1c1ccccc1 (stereo not drawn) [Example 9, 4-[(6-Phenylphenanthridin-5(6H)-yl)sulfonyl]phenol] | 217 to 220 °C |  | 89% | 125 nM | EC50 (creatine kinase; Homo sapiens, HAECT1): 455 nM; Emax (creatine kinase; Homo sapiens, HAECT1): 26% |
| Cc1ccc2c(c1)C(C)N(S(=O)(=O)c1ccc(O)cc1)c1ccccc1-2 (stereo not drawn) [Example 60, 4-[(6,8-Dimethylphenanthridin-5(6H)-yl)sulfonyl]phenol] | 111 to 113 °C | < 35% | 95% | 257 nM |  |
| CC1c2cc(F)ccc2-c2ccccc2N1S(=O)(=O)c1ccc(O)cc1 (stereo not drawn) [Example 32, 4-[(8-Fluoro-6-methylphenanthridin-5(6H)-yl)sulfonyl]phenol] | 188 °C |  | 96% | 96 nM | EC50 (creatine kinase; Homo sapiens, HAECT1): 302 nM; Emax (creatine kinase; Homo sapiens, HAECT1): 26% |
| CCC1c2cc(F)ccc2-c2ccccc2N1S(=O)(=O)c1ccc(OC(=O)CC(C)(C)C)cc1 (stereo not drawn) [Example 53, 4-[(6-Ethyl-8-fluorophenanthridin-5(6H)-yl)sulfonyl]phenyl 3,3-dimethylbutanoate] | 128 °C | < 35% | 76% | 764 nM |  |
| Cc1cc(S(=O)(=O)N2c3ccccc3-c3ccccc3C2C)cc(C)c1O (stereo not drawn) [Example 59, 2,6-Dimethyl-4-[(6-methylphenanthridin-5(6H)-yl)sulfonyl]phenol] | 211 to 213 °C |  | 102% | 1720 nM | EC50 (creatine kinase; Homo sapiens, HAECT1): 2930 nM; Emax (creatine kinase; Homo sapiens, HAECT1): 22% |
| CC1c2ccccc2-c2ccccc2N1S(=O)(=O)c1ccc(O)c(F)c1 (stereo not drawn) [Example 56, 2-Fluoro-4-[(6-methylphenanthridin-5(6H)-yl)sulfonyl]phenol] | 172 to 174 °C |  | 100% | 1440 nM | EC50 (creatine kinase; Homo sapiens, HAECT1): 750 nM; Emax (creatine kinase; Homo sapiens, HAECT1): 34% |
| Cc1cc(S(=O)(=O)N2c3ccccc3-c3ccccc3C2C)ccc1O (stereo not drawn) [Example 5, 2-Methyl-4-[(6-methylphenanthridin-5(6H)-yl)sulfonyl]phenol] | 186 to 188 °C | < 35% | 102% | 433 nM |  |
| CC1c2ccc(O)cc2-c2ccccc2N1S(=O)(=O)c1ccc(O)cc1 (stereo not drawn) [Example 36, 5-[(4-Hydroxyphenyl)sulfonyl]-6-methyl-5,6-dihydrophenanthridin-9-ol] | 212 °C | < 35% | 60% | 690 nM |  |
| CCCCC1c2ccccc2-c2ccccc2N1S(=O)(=O)c1ccc(O)cc1 (stereo not drawn) [Example 7, 4-[(6-Butylphenanthridin-5(6H)-yl)sulfonyl]phenol] | 149 to 151 °C | < 35% | 7% | 470 nM |  |
| CC1c2cc(F)ccc2-c2ccccc2N1S(=O)(=O)c1ccc(O)c(O)c1 (stereo not drawn) [Example 50, 4-[(8-Fluoro-6-methylphenanthridin-5(6H)-yl)sulfonyl]benzene-1,2-diol] | 165 to 170 °C | < 35% |  | > 10000 nM |  |
| CC1c2ccc(F)cc2-c2ccc(F)cc2N1S(=O)(=O)c1ccc(O)cc1 (stereo not drawn) [Example 114, 4-[(3,9-Difluoro-6-mthylphenanthridin-5(6H)-yl)sulfonyl]ph nol] |  |  |  |  | Interleukin-6 Efficacy (%) (IL-6; IL-1β): 98%; IC50 (IL-6; IL-1β): 78 nM; Creatin Kinase Efficacy (%) (creatine kinase): 23% |
| C[C@H]1c2ccccc2-c2ccc(F)cc2N1S(=O)(=O)c1cccc(O)c1 [Example 108, 3-{[(6S)-3-Fluoro-6-methylphenanthridin-5(6H)-yl]sulfonyl}phenol] |  |  |  |  | Emax (IL-6; Homo sapiens, HAECT1, IL-1β): 92%; IC50 (IL-6; Homo sapiens, HAECT1, IL-1β): 43 nM; EC50 (creatine kinase; Homo sapiens, HAECT1): 152 nM; Emax (creatine kinase; Homo sapiens, HAECT1): 11% |
| CCCCC1c2ccccc2-c2cc(Br)ccc2N1S(=O)(=O)c1ccc(O)cc1 (stereo not drawn) [Example 8, 4-[(2-Bromo-6-butylphenanthridin-5(6H)-yl)sulfonyl]phenol] | 178 to 180 °C | < 35% | 89% | 672 nM |  |
| CC1c2ccccc2-c2cc(Br)ccc2N1S(=O)(=O)c1ccc(O)c(F)c1 (stereo not drawn) [Example 57, 4-[(2-Bromo-6-methylphenanthridin-5(6H)-yl)sulfonyl]-2-fluorophenol] | 203 to 206 °C | < 35% |  | > 10000 nM |  |
| C[C@@H]1c2cc(F)ccc2-c2ccc(F)cc2N1S(=O)(=O)c1ccc(O)cc1 (single isomer, unassigned) [Example 99] |  |  |  |  | Emax (IL-6; Homo sapiens, HAECT1, IL-1β): 139%; IC50 (IL-6; Homo sapiens, HAECT1, IL-1β): 341 nM |
| Cc1cc(S(=O)(=O)N2c3ccc(Br)cc3-c3ccccc3C2C)ccc1O (stereo not drawn) [Example 6, 4-[(2-Bromo-6-methylphenanthridin-5(6H)-yl)sulfonyl]-2-methylphenol] | 193 to 195 °C | < 35% | 92% | 474 nM |  |
| O=S(=O)(c1ccc(O)c(Br)c1)N1c2ccc(Br)cc2-c2ccccc2C1c1ccccc1 (stereo not drawn) [Example 13, 2-Bromo-4-[(2-bromo-6-phenylphenanthridin-5(6H)-yl)sulfonyl]phenol] | 237 to 239 °C | < 35% |  | > 10000 nM |  |
